Results as given in patent publication US10822349B2, “Macrocyclic purines for the treatment of viral infections” (JANSSEN SCIENCES IRELAND UNLIMITED COMPANY, priority 2012, dated 2020).

Columns and labels:
[1] = tested on: interferon production in human PBMC; assay: Interferon production in human PBMC, read out on HEK-ISRE-luc reporter cells; type: cell-based; details: Homo sapiens, PBMC, 24 h, lowest effective concentration, PBMC supernatant after overnight incubation transferred to HEK-ISRE-luc cells, read-out: PBMC HEK-ISRE-luc (LEC; μM)
Description: Activation of human TLR7 results in robust production of interferon by plasmacytoid dendritic cells present in human blood. The potential of compounds to induce interferon was evaluated by determination of interferon in the conditioned media from peripheral blood mononuclear cells (PBMC). The presence of interferon in the samples was determined, using an interferon reporter cell line stably expressing an interferon-stimulated responsive elements (ISRE)-luc reporter construct. The ISRE element with sequence GAAACTGAAACT (SEQ ID: 1) is highly responsive to the STAT1-STAT2-IRF9 transcription factor, which becomes activated upon binding of IFN-I to the IFN receptor. Briefly, PBMCs were prepared from buffy coats of at least two donors using a standard Ficoll centrifugation protocol. Isolated PBMCs were resuspended in RPMI medium supplemented with 10% human AB serum and 2×10^5 cells/well were dispensed into 384-well plates containing compounds (70 μL total volume). After overnight incubation of the PBMCs with the compounds, 10 μL of supernatant was transferred to 384-well plates containing 5×10^3 HEK-ISRE-luc cells/well in 30 μL (plated the day before). Following 24 hours of incubation, activation of the ISRE elements was measured by assaying luciferase activity using 40 μL/well Steady Lite Plus substrate (Perkin Elmer) and measured with ViewLux ultraHTS microplate imager (Perkin Elmer). The stimulating activity of each compound on the HEK-ISRE-luc cells was reported as LEC. The LEC in turn indicates the degree of ISRE activation on transfer of a defined amount of PBMC culture medium. Recombinant interferon alfa-2a (Roferon-A) was used as a standard control compound.

human TLR7 = target: T1, human TLR7 (Homo sapiens, UniProt Q9NYK1); assay: TLR7 cellular reporter assay (HEK293 TLR7-NFκB-luc); type: cell-based; details: lowest effective concentration; HEK293 transiently transfected with TLR7 and NFκB-luc; 6 hours incubation
T1 construct: expressed in transfected cells; host or cells: HEK293
T1 sequence (Q9NYK1 27-1049): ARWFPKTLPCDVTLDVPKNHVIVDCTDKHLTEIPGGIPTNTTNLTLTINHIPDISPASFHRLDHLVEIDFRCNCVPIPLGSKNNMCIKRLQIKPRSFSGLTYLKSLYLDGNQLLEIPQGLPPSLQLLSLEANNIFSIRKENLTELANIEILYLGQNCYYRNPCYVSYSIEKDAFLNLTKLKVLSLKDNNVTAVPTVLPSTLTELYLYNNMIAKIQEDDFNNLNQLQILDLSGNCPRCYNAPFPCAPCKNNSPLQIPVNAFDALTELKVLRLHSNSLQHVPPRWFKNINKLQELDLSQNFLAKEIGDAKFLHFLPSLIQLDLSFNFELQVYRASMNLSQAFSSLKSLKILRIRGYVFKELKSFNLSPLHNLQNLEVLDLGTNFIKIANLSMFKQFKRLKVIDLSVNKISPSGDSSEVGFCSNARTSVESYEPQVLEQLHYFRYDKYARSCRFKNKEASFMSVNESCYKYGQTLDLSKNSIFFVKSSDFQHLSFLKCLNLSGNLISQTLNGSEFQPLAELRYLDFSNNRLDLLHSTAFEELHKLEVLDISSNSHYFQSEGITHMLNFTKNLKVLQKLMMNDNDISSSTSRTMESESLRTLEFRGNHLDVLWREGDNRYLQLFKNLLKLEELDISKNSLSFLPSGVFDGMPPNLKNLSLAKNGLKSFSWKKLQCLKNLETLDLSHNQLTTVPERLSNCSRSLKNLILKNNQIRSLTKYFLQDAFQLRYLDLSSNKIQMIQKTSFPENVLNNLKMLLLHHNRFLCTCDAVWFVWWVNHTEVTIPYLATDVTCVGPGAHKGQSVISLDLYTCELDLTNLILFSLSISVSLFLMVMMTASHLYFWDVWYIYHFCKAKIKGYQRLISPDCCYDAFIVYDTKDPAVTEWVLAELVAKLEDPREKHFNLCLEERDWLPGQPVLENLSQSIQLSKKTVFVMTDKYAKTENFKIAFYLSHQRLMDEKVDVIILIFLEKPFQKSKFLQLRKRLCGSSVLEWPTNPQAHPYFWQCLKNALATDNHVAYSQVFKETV
Description: The ability of compounds to activate human TLR7 and TLR8 was assessed in a cellular reporter assay using HEK293 cells transiently transfected with a TLR7 or TLR8 expression vector and NFκB-luc reporter construct. Briefly, HEK293 cells were grown in culture medium (DMEM supplemented with 10% FCS and 2 mM Glutamine). For transfection of cells in 10 cm dishes, cells were detached with Trypsin-EDTA, transfected with a mix of CMV-TLR7 or TLR8 plasmid (750 ng), NFκB-luc plasmid (375 ng) and a transfection reagent and incubated 48 hours at 37° C. in a humidified 5% CO2 atmosphere. Transfected cells were then detached with Trypsin-EDTA, washed in PBS and resuspended in medium to a density of 1.67×10^5 cells/mL. Thirty microliters of cells were then dispensed into each well in 384-well plates, where 10 μL of compound in 4% DMSO was already present. Following 6 hours incubation at 37° C., 5% CO2, the luciferase activity was determined by adding 15 μl of Steady Lite Plus substrate (Perkin Elmer) to each well and readout performed on a ViewLux ultraHTS microplate imager (Perkin Elmer). Dose response curves were generated from measurements performed in quadruplicates. Lowest effective concentrations (LEC) values, defined as the concentration that induces an effect which is at least two fold above the standard deviation of the assay, were determined for each compound.

HEK293 TLR7-NFκB-luc (LEC; μM) (human TLR7)	Compound	minimal effective concentration [1]
0.24 µM	Nc1nc2nc3c1nc(O)n3Cc1cccc(c1)CC(=O)NCCCO2 [Compound 5]	0.044 µM
0.53 µM	Nc1nc2nc3c1nc(O)n3Cc1ccccc1OC/C=C\CO2 [Compound 77]	0.1 µM
0.74 µM	Nc1nc2nc3c1nc(O)n3Cc1cccc(c1)OCC/C=C\CO2 [Compound 20]	0.15 µM
0.043 µM	Nc1nc2nc3c1nc(O)n3Cc1cccc(c1)OC/C=C/CO2 [Compound 23]	0.012 µM
0.12 µM	COc1ccc2cc1Cn1c(O)nc3c(N)nc(nc31)OC/C=C/CO2 [Compound 63]	0.031 µM
0.11 µM	Nc1nc2nc3c1nc(O)n3Cc1ccc(F)c(c1)OC/C=C\CO2 [Compound 88]	–
0.17 µM	Nc1nc2nc3c1nc(O)n3Cc1cccc(c1)OC/C=C/CCCO2 [Compound 33]	0.11 µM
0.81 µM	Nc1nc2nc3c1nc(O)n3Cc1cccc(c1)C/C=C/CCN2 [Compound 29]	0.15 µM
4.59 µM	Nc1nc2nc3c1nc(O)n3Cc1ccc(cc1)OC/C=C/CCCO2 [Compound 81]	0.63 µM
2.42 µM	Nc1nc2nc3c1nc(O)n3Cc1cccc(c1)OCCCCN2 [Compound 8]	0.68 µM
1.68 µM	Nc1nc2nc3c1nc(O)n3Cc1cccc(c1)OCCCCCN2 [Compound 14]	0.51 µM
0.47 µM	Nc1nc2nc3c1nc(O)n3Cc1ccc(F)c(c1)OCCCCN2 [Compound 92]	–
0.12 µM	Nc1nc2nc3c1nc(O)n3Cc1cccc(c1)C/C=C/CCO2 [Compound 15]	0.016 µM
0.1 µM	COc1ccc2cc1Cn1c(O)nc3c(N)nc(nc31)OC/C=C\CO2 [Compound 74]	0.044 µM
0.12 µM	Nc1nc2nc3c1nc(O)n3Cc1cccc(c1)OC/C=C\CO2 [Compound 22]	0.054 µM
0.74 µM	Nc1nc2nc3c1nc(O)n3Cc1cc(ccn1)OC/C=C/CCO2 [Compound 51]	0.069 µM
4.7 µM	COc1c2cccc1OC/C=C/COc1nc(N)c3nc(O)n(c3n1)C2 [Compound 61]	4.98 µM
0.87 µM	Nc1nc2nc3c1nc(O)n3Cc1cccc(c1)C/C=C/CCC(CO)N2 (stereo not drawn) [Compound 7]	0.31 µM
0.034 µM	Nc1nc2nc3c1nc(O)n3Cc1ccc(F)c(c1)OC/C=C/CO2 [Compound 87]	–
0.14 µM	Nc1nc2nc3c1nc(O)n3Cc1ccc(F)c(c1)OCCCCO2 [Compound 91]	–
0.063 µM	Nc1nc2nc3c1nc(O)n3Cc1ccc(F)c(c1)OC/C=C/CN2 [Compound 90]	–
0.4 µM	Nc1nc2nc3c1nc(O)n3Cc1ccc(F)c(c1)OC/C=C\CN2 [Compound 89]	–

Further lines, the compound ahead of its results:

Compound	HEK293 TLR7-NFκB-luc (LEC; μM) (human TLR7)	minimal effective concentration [1]
Nc1nc2nc3c1nc(O)n3Cc1ccc(cc1)C/C=C\CCCCO2 [Compound 36]	12.45 µM	0.68 µM
COc1ccc2cc1Cn1c(O)nc3c(N)nc(nc31)OCC/C=C\C2 [Compound 72]	0.018 µM	0.0029 µM
Nc1nc2nc3c1nc(O)n3Cc1cccc(c1)C/C=C/CCCCO2 [Compound 34]	9.81 µM	0.032 µM
Nc1nc2nc3c1nc(O)n3Cc1cccc(c1)C/C=C/CCCn1ccnc1-2 [Compound 3]	1.05 µM	0.14 µM
COc1ccc2cc1Cn1c(O)nc3c(N)nc(nc31)OCC/C=C/C2 [Compound 73]	0.045 µM	0.01 µM
Nc1nc2nc3c1nc(O)n3Cc1cccc(c1)OCCCCO2 [Compound 11]	0.050 µM	0.022 µM
Nc1nc2nc3c1nc(O)n3Cc1cccc(c1)OCCCCCO2 [Compound 38]	0.53 µM	0.027 µM
Nc1nc2nc3c1nc(O)n3Cc1cccc(c1)C/C=C/CCCO2 [Compound 16]	0.375 µM	0.11 µM
CN1CCOC(=O)Cc2cccc(c2)Cn2c(O)nc3c(N)nc1nc32 [Compound 85]	0.33 µM	12.5 µM
CC1CCOc2cccc(c2)Cn2c(O)nc3c(N)nc(nc32)OC1 (stereo not drawn) [Compound 71]	0.12 µM	0.04 µM
Nc1nc2nc3c1nc(O)n3CCc1cccc(c1)OCCCCO2 [Compound 64]	1.49 µM	0.5 µM
COc1ccc2cc1Cn1c(O)nc3c(N)nc(nc31)OCCCCO2 [Compound 70]	0.15 µM	0.04 µM
Nc1nc2nc3c1nc(O)n3Cc1cccc(c1)OCCCCCCO2 [Compound 43]	0.11 µM	0.034 µM
Nc1nc2nc3c1nc(O)n3Cc1cc(ccn1)OCCCCCO2 [Compound 58]	0.63 µM	0.086 µM
Nc1nc2nc3c1nc(O)n3Cc1cccc(c1)OCCCCCC(CO)N2 (stereo not drawn) [Compound 19]	2.24 µM	0.14 µM
Nc1nc2nc3c1nc(O)n3Cc1cccc(c1)CCCCCC(CO)N2 (stereo not drawn) [Compound 10]	5.26 µM	0.53 µM
Nc1nc2nc3c1ncn3Cc1cccc(c1)C/C=C\CCO2 [Compound 52]	7.96 µM	4.8 µM
Nc1nc2nc3c1nc(O)n3Cc1cccc(c1)OCC(=O)NCCCO2 [Compound 80]	0.041 µM	0.087 µM
Nc1nc2nc3c1nc(O)n3CCc1cccc(c1)C/C=C/CCO2 [Compound 82]	3.95 µM	–
